Experimental data as given in patent US6787549B2, “Citrate salt of 5,8,14-triazatetracyclo[10.3.1.02,11.04,9]-hexadeca-2(11),3,5,7,9-pentaene and pharmaceutical compositions thereof” (Pfizer Inc., priority 2001, dated 2004).
Where a name gives a salt, the structure may show the parent alone.

Columns and labels:
Type in all cases: physicochemical
aqueous solubility = experiment: aqueous solubility
[1] = hygroscopicity on exposure to 90% relative humidity in a moisture chamber
Text: (§1) Although in general the acid addition salts of 5,8,14-triazatetracyclo[10.3.1.0^2,11.0^4,9]-hexadeca-2(11),3,5,7,9-pentaene are all crystalline, the majority of those salts are so hygroscopic as to render them poor candidates for pharmaceutical formulation use. The citrate salt exists as a hydrate under ambient conditions, where as noted above, hydrate refers to a water content of between 1 and 5% water by weight in the crystal. […] The citrate salt hydrate Form A has been prepared under different conditions: […]

[2] = solid state stability (light, elevated temperature, high humidity challenges); conditions: in light, elevated temperatures and high humidity challenges
Text: as §1

[3] = native pH in aqueous solution
[4] = inertness towards common formulation excipients
[5] = water loss of Form A on drying (low humidity, elevated temperature)
Method: Under low humidity and elevated temperature, Form A will lose water depending on the macroscopic crystalline form. Unmilled samples of Form A may be dried in a 45° C. vacuum oven for several days without significant water loss (<1% water loss). […] Under conditions of low humidity and heat, Form A will dehydrate completely or nearly so to form a distinct pseudomorph which maintains a crystalline lattice, referred to herein as Form B. Form B contains between 0 and 1% water by weight.
Form B of the citrate salt of 5,8,14-triazatetracyclo[10.3.1.0^2,11.0^4,9]-hexadeca-2(11),3,5,7,9-pentaene can also be prepared by drying the citrate salt hydrate of 5,8,14-triazatetracyclo[10.3.1.0^2,11.0^4,9]-hexadeca-2(11),3,5,7,9-pentaene. A number of means for drying the water from the crystal lattice may be employed. Form B may be prepared by reducing the particle size of Form A, via any technique known to those of skill in the art, including jet milling, mechanical milling, etc., and drying the reduce particle size citrate salt Form A under conditions sufficient to remove the water in the lattice. […] Vacuum drying at temperatures in the range of 20 to 60° C. will yield Form B in the course of 30 minutes to 10 hours.

aqueous solubility (in words) (aqueous solubility): high aqueous solubility | aqueous solubility (aqueous solubility; listed as citrate hydrate salt): 110 mg/mL | solubility (aqueous solubility; water): > 100 mg/mL | hygroscopicity (in words) [1]: only slightly hygroscopic | hygroscopicity ([1]; at 90% relative humidity): approximately 0.6% | hygroscopicity ([1]; exposure to 90% relative humidity in a moisture chamber): approximately 0.6 % wt/wt | solid state stability [2]: excellent solid state stability | native pH in aqueous solution [3]: 3.7 | water loss and regain (in words) ([5]; micronized samples, as humidity and temperature are varied): readily lose and regain water | time until water loss is seen ([5]; particle size reduced, at 45° C.): less than 1 hour | water loss ([5]; unmilled samples, 45° C. vacuum oven for several days): < 1%
SMILES: c1cnc2cc3c(cc2n1)C1CNCC3C1 [Form A, Citrate Salt Hydrate of 5,8,14-Triazatetracyclo[10.3.1.0^2,11.0^4,9]-Hexadeca-2(11),3,5,7,9-Pentaene (Form A)]
inertness towards common excipients used in pharmaceutical formulation [4]: relative inertness towards common excipients
